Results as given in US11178895B2, “Composition for enhancing immunity of insects and method thereof” (NatureWise Biotech & Medicals Corporation, priority 2017, dated 2021).

Tested on: field bees
Experiment: Honey bee acute contact toxicity test (topical imidacloprid): tolerance of bees to imidacloprid
Format: in vivo
Settings: control group fed 50% sucrose water
Description: Many reports confirm that neonicotinoids cause damage to the immune system of bees and many species (Mason et al., 2013). It is clear that damage to the immune system may be one of the important causes of bee killing by imidacloprid (a pesticide). According to the experimental results of the composition of the invention on the survival rate of bees and the regulation of immune genes, in this experiment, field bees that are easily exposed to pesticides are used as the test subjects, and sugar water containing a concentration of 0.5 mg/mL of Macaranga tanarius extract is fed to observe whether the tolerance of bees to imidacloprid can be enhanced.
The experiment employed Topical application method with reference to US EPAOCSPP 850.3020: Honey Bee Acute Contact Toxicity Test. […] After the bees were frozen and fainted, 1 μg/bee of the imidacloprid solution was administered quantitatively to the prothorax tergum of the bee by a microapplicator. The solvent control group was administered with 1 […]. Each group had 10 bees. After the administration of the drug, the bees were transferred to a constant-temperature growth box for breeding. The sugar water containing 0.5 mg/mL of Macaranga tanarius extract was provided to feed the bees in the experimental group, and the control group was fed with 50% sucrose water. […]

## O=[N+]([O-])NC1=NCCN1Cc1ccc(Cl)nc1 [imidacloprid]
6.7 ng/μL imidacloprid
  24-hour average mortality rate: 19.30%
23.8 ng/μL imidacloprid
  24-hour average mortality rate: 36.84%
